Earlier results as cited in US12246026B2, “Ganaxolone for use in treatment of status epilepticus” (Marinus Pharmaceuticals, Inc., priority 2019, dated 2025).

Tested on: patients with super refractory SE
Conditions: randomized, double-blind, placebo-controlled Phase 3 trial; cited from earlier work

For `CC(=O)[C@H]1CC[C@H]2[C@@H]3CC[C@H]4C[C@H](O)CC[C@]4(C)[C@H]3CC[C@]12C` [brexanolone], the efficacy over placebo is listed as “failed to show efficacy over placebo”.
